# What was measured:
# S. aureus ATCC 27660 = test: NCCLS broth microdilution MIC; type: cell-based, Staphylococcus aureus; conditions: Col. A = S. aureus ATCC 27660 (MRSA)
# Description: (§1) In vitro antibacterial activity data were collected for the following Gram-positive bacteria: Staphylococcus aureus (ATCC 27660, ATCC 33591 and ATCC 43300, all methicillin resistant strains (MRSA's)); Streptococcus pneumoniae (ATCC 51422, a penicillin resistant strain (PRSP)), Enterococcus faecium (ATCC 51559, and/or a vancomycin resistant strain (VRE)). Additionally, antifungal activity data were collected for Candida albicans (ATCC 38247). Minimal inhibition concentrations (MIC's) were determined using the National Committee for Clinical Laboratory Standards (NCCLS) broth microdilution assay in microtiter plates, as set forth in: (1) the guidelines of the National Committee for Clinical Laboratory Standards (NCCLS) Document M7-A4 (NCCLS, 1997); (2) the guidelines of the National Committee for Clinical Laboratory Standards (NCCLS) Document M11-A4 (NCCLS, 1997); and (3) the guidelines and reference method of the National Committee for Clinical Laboratory Standards (NCCLS) Document M27-T (NCCLS, 1995). For antifungal essays, the method recommended in Murray, PR., 1995 Manual of Clinical Microbiology (ASM Press, Washington, D.C.), was employed.
# S. aureus ATCC 33591 = test: NCCLS broth microdilution MIC; type: cell-based, Staphylococcus aureus; conditions: Col. B = S. aureus ATCC 33591 (MRSA)
# Description: as §1
# [1] = tested on: Enterococcus faecium ATCC 51559; test: NCCLS broth microdilution MIC; type: cell-based; conditions: Col. D = E. faecium ATCC 51559 (VRE)
# Description: as §1
# [2] = tested on: Streptococcus pneumoniae ATCC 51422; test: NCCLS broth microdilution MIC; type: cell-based; conditions: Col. E = S. pneumoniae ATCC 51422 (PRSP)
# Description: as §1
# [3] = tested on: Candida albicans ATCC 38247; test: Antifungal MIC; type: cell-based; conditions: Col. F = C. albicans ATCC 38247
# Description: as §1
# [4] = molecular target: target sequence AAAAAGACAAAAA (351 bp fragment, Plasmid A); test: Quantitative DNase I footprint titration; type: binding; conditions: 351 bp A, 22° C., pH 7.0, read-out: Dissociation Constant Kd
# Description: (§2) Compounds (1) through (20) according to this invention were screened for their ability to bind to specified DNA target sequences, using DNase I footprinting. Generally, the procedure described in Dervan, WO 98/50582 (1998), was followed.
# (§3) Three double stranded circular plasmids A, B, and C were used to prepare double stranded DNA-binding probes containing the target sequences for the DNase I footprint titration experiments. Plasmids A, B, and C had nucleotide sequences given by SEQ ID NO. I, SEQ ID NO. II, and SEQ ID NO. III, respectively.
# (§4) The 3′-P32 end-labeled EcoRI/PvuII fragments from each plasmid were prepared by digesting the plasmids with EcoRI and PvuII with simultaneous fill-in using Sequenase v. 2.0, [alpha-P32]-deoxyadenosine-5′-triphosphate, and [alpha-P32]-thymidine-5′-triphosphate, and isolating the cloned fragments by nondenaturing gel electrophoresis. A and G sequencing reactions were carried out as described (See Maxam and Gilbert, Methods Enzymol., 1980, 65, 499-560; Iverson and Dervan, Methods Enzymol., 1987, 15, 7823-7830; Sambrook et al., 1989, Molecular Cloning, 2nd ed., Cold Spring Harbor Laboratory Press: Cold Spring Harbor, N.Y.) Standard methods were used for all DNA manipulations (Sambrook et al., ibid.) The cut sites for EcoRI and PvuII are indicated by bars in the respective maps of Plasmids A, B, and C in FIGS. 5, 6, and 7.
# (§5) The 351 base pair dsDNA restriction fragment (SEQ ID NO. IV) of Plasmid A contained the target sequences AAAAAGCAAAAA, AAAAAGACAAAAA, and AAAAAGTACAAAAA. The 310 base pair dsDNA restriction fragment (SEQ ID NO. V) of Plasmid B contained the target sequences AGTACT, AATACT, and ATTACT. The 352 base pair dsDNA restriction fragment (SEQ ID NO. VI) of Plasmid C contained the target sequences TGACAATTAAT, GACAATTAATCA, AATTAATCAT, ACAATTA, and ACAATTAAT. These fragments were used for quantitative DNase I footprinting experiments. Compounds used in the method of this invention bind to at least one of the target sites with a equal to or less than 100 nM, preferably equal to or less than 50 nM, and more preferably equal to or less than 20 nM. The target sequences were selected for the identity with, or similarity to, promoter sites for bacterial genes.
# (§6) Quantitative DNase I footprint titration experiments were carried out as described previously (Dervan, WO 98/50582, 1998) with the following changes. All reactions were carried out in a total volume of 400 μL, with compound stock solution or water added to 15,000 cpm radiolabeled restriction fragment affording final solution conditions of 10 mM Tris HCl, 10 mM KCl, 10 mM MgCl2, 5 mM CaCl2, pH 7.0 and 0.01 nM, 0.1 nM, 1.0 nM, 10.0 nM compound or no compound for reference lanes. The compounds were allowed to equilbrate at 22° C. for 16 h. Footprinting reactions were initiated with addition of 10 μL of a DNase I stock solution (at the appropriate concentration to give ˜50% intact DNA) containing 1 mM DTT and allowed to proceed for 7 min at 22° C. The reactions were stopped, ethanol precipitated, resuspended in loading buffer, heat denatured, and placed on ice as described previously (Dervan WO 98/50582, 1998). The reaction products were separated on a precast 8% polyacrylamide denaturing sequencing Castaway gel with 32 preformed wells from Stratagene in 1×TBE at 2000 V. Gels were dried according to the manufacturer and exposed to a storage phosphor screen (Molecular Dynamics). Quantitation and data analysis were carried out as described in Dervan, WO 98/50582, 1998.
# [5] = molecular target: target sequence AAAAAGCAAAAA (351 bp fragment, Plasmid A); test: Quantitative DNase I footprint titration; type: binding; conditions: 351 bp A, 22° C., pH 7.0, read-out: Dissociation Constant Kd
# Description: as §2, §3, §4, §5, §6
# [6] = molecular target: target sequence TGACAATTAAT (352 bp fragment, Plasmid C); test: Quantitative DNase I footprint titration; type: binding; conditions: 352 bp C, 22° C., pH 7.0, read-out: Dissociation Constant Kd
# Description: as §2, §3, §4, §5, §6
structure (smiles),measurement,setting,value
CN(C)CCCNC(=O)CCNC(=O)c1cc(NC(=O)c2cc(NC(=O)CCNC(=O)c3cc(NC(=O)c4cc(NC(=O)c5cc(Br)c(Br)s5)cn4C)cn3C)cn2C)cn1C [Compound 1],Minimum Inhibitory Concentration (MIC),S. aureus ATCC 27660,++ (++ = MIC ≦ 1)
same,Minimum Inhibitory Concentration (MIC),S. aureus ATCC 33591,+ (+ = MIC ≦ 2)
same,Minimum Inhibitory Concentration (MIC),[1],− (− = MIC > 2)
same,Minimum Inhibitory Concentration (MIC),[2],++ (++ = MIC ≦ 1)
same,Minimum Inhibitory Concentration (MIC),[3],>32 µg/mL
same,Kd,[4],0.01 nM
same,Kd,[5],0.01 nM
same,Kd,[6],2 nM

# From patent US20030199516A1, “Methods of treating infection by drug resistant bacteria” (Genesoft, Inc., priority 2001, published 2003)
